Data from patent publication US5095012A, “Antibiotic C-7 catechol-substituted cephalosporin compounds, compositions, and method of use thereof” (Bristol-Myers Squibb Company, priority 1990, dated 1992).
Values after ≈ are worked out from the molar mass of the structure shown.

Tests used:
[1] = test system: Penicillin(PC)-sensitive S. aureus (5 strains); assay: MIC by two-fold serial agar dilution, group Gp-Ia; format: cell-based; conditions: Staphylococcus aureus, Gp-Ia (5 strains), Mueller-Hinton agar, read-out: Geometric mean of MIC, Gp-Ia
Protocol: (§1) Minimum inhibitory concentrations (MICs) for the compounds in the above examples were determined against thirty two strains of test organisms by a two-fold serial agar dilution method in Mueller-Hinton agar. Geometric means of MICs were calculated against six groups of the test organisms which are classified as follows and summarized in Table 1.
Gp-Ia Penicillin(PC)-sensitive S. aureus (5 strains).

[2] = test system: Penicillin(PC)-resistant S. aureus (5); assay: MIC by two-fold serial agar dilution, group Gp-Ib; format: cell-based; conditions: Staphylococcus aureus, Gp-Ib (5), Mueller-Hinton agar, read-out: Geometric mean of MIC, Gp-Ib
Protocol: as §1
Gp-Ib Penicillin(PC)-resistant S. aureus (5).

[3] = test system: Cephalothin(CET)-sensitive E. coli (2), Kl. pneumoniae (1) and Pr. mirabilis (2); assay: MIC by two-fold serial agar dilution, group Gn-Ia; format: cell-based; conditions: Gn-Ia (5), Mueller-Hinton agar, read-out: Geometric mean of MIC, Gn-Ia
Protocol: as §1
Gn-Ia Cephalothin(CET)-sensitive E. coli (2), Kl.
pneumoniae (1) and Pr. mirabilis (2).

[4] = test system: Cephalothin(CET)-resistant E. coli (3) and Kl. pneumoniae (2); assay: MIC by two-fold serial agar dilution, group Gn-Ib; format: cell-based; conditions: Escherichia coli, read-out: Geometric mean of MIC, Gn-Ib
Protocol: as §1
Gn-Ib Cephalothin(CET)-resistant E. coli (3) and Kl.

[5] = test system: M. morganii (1), Ent. cloacae (2) and Ser. marcescens (2); assay: MIC by two-fold serial agar dilution, group Gn-II; format: cell-based; conditions: Gn-II (5), Mueller-Hinton agar, read-out: Geometric mean of MIC, Gn-II
Protocol: as §1
Gn-II M. morganii (1), Ent. cloacae (2) and Ser.

Ps. aeruginosa (7) = assay: MIC by two-fold serial agar dilution, group Gn-III; format: cell-based; conditions: Pseudomonas aeruginosa, Gn-III (7), Mueller-Hinton agar, read-out: Geometric mean of MIC, Gn-III
Protocol: as §1
Gn-III Ps. aeruginosa (7).

S. aureus Smith [6] = assay: In vivo antibacterial activity in infected mice, S. aureus Smith; conditions: Staphylococcus aureus, im, just after the bacterial challenge, read-out: PD50, S. aureus Smith
Protocol: (§2) In vivo antibacterial activity was determined against three bacterial infections (S. aureus Smith, E. coli Juhl and P. aeruginosa A98483A) by intramuscular administration to mice just after the bacterial challenge. PD50 values are summarized in Table 2 in comparison with the MIC values against the corresponding organisms.

S. aureus Smith [7] = assay: MIC against S. aureus Smith; format: cell-based; conditions: Staphylococcus aureus
Protocol: as §1, §2

E. coli Juhl [8] = assay: In vivo antibacterial activity in infected mice, E. coli Juhl; conditions: Escherichia coli, im, just after the bacterial challenge, read-out: PD50, E. coli Juhl
Protocol: as §2

E. coli Juhl [9] = assay: MIC against E. coli Juhl; format: cell-based; conditions: Escherichia coli
Protocol: as §1, §2

P. aeruginosa A9843A [10] = assay: In vivo antibacterial activity in infected mice, P. aeruginosa A9843A; conditions: Pseudomonas aeruginosa, im, read-out: PD50, P. aeruginosa A9843A
Protocol: as §2

P. aeruginosa A9843A [11] = assay: MIC against P. aeruginosa A9843A; format: cell-based; conditions: Pseudomonas aeruginosa, read-out: MIC, P. aeruginosa A9843A
Protocol: as §1, §2

| Compound | MIC [1] [µg/mL] | MIC [2] [µg/mL] | MIC [3] [µg/mL] | MIC [4] [µg/mL] | MIC [5] [µg/mL] | MIC (Ps. aeruginosa (7)) [µg/mL] | ED50 (S. aureus Smith [6]) [mg/kg] | MIC (S. aureus Smith [7]) [µg/mL] | ED50 (E. coli Juhl [8]) [mg/kg] | MIC (E. coli Juhl [9]) [µg/mL] | ED50 (P. aeruginosa A9843A [10]) [mg/kg] | MIC (P. aeruginosa A9843A [11]) [µg/mL] |
| --- | --- | --- | --- | --- | --- | --- | --- | --- | --- | --- | --- | --- |
| Nc1nc(/C(=N/OC(C(=O)O)c2ccc(O)c(O)c2)C(=O)NC2C(=O)N3C(C(=O)[O-])=C(/C=C/C[n+]4ccccc4)CSC23)cs1 (stereo not drawn) [Ic] | 0.26 (≈ 0.398 µM) | 0.4 (≈ 0.613 µM) | 0.076 (≈ 0.116 µM) | 0.15 (≈ 0.23 µM) | 0.46 (≈ 0.705 µM) | 2.3 (≈ 3.52 µM) | 1.4 | 0.4 (≈ 0.613 µM) | 0.067 | 0.05 (≈ 0.0766 µM) | 12 | 3.1 (≈ 4.75 µM) |
| Nc1nc(/C(=N/OCc2cc(O)c(O)cc2C(=O)O)C(=O)NC2C(=O)N3C(C(=O)[O-])=C(/C=C/C[n+]4ccccc4)CSC23)cs1 (stereo not drawn) [Id] | 0.61 (≈ 0.935 µM) | 1.6 (≈ 2.45 µM) | 0.087 (≈ 0.133 µM) | 0.17 (≈ 0.26 µM) | 0.46 (≈ 0.705 µM) | 0.88 (≈ 1.35 µM) | 1 | 0.8 (≈ 1.23 µM) | 0.017 | 0.1 (≈ 0.153 µM) | 7.2 | 0.8 (≈ 1.23 µM) |
| C[N+]1(CC2=C(C(=O)[O-])N3C(=O)C(NC(=O)/C(=N\OC(C(=O)O)c4ccc(O)c(O)c4)c4csc(N)n4)[C@H]3SC2)Cc2cc(O)c(O)cc2C1 (stereo partly drawn) [Ie, 7-[2-(2-Aminothiazol-4-yl)-2-[(Z)-[carboxy(3,4-dihydroxy-phenyl)methyl]oxyimino]acetamido]-3-(5,6-dihydroxy-2-methyl-2-isoindolinio)methyl-3-cephem-4-carboxylate] | 8.3 (≈ 11.6 µM) | 13 (≈ 18.2 µM) | 0.46 (≈ 0.645 µM) | 0.46 (≈ 0.645 µM) | 1.6 (≈ 2.24 µM) | 0.3 (≈ 0.421 µM) | 2.4 | 12.5 (≈ 17.5 µM) | 0.045 | 0.8 (≈ 1.12 µM) | 2.1 | 0.4 (≈ 0.561 µM) |
| C[N+]1(CC2=C(C(=O)[O-])N3C(=O)C(NC(=O)C(=NOC(C(=O)O)c4ccc(O)c(O)c4)c4csc(N)n4)C3SC2)CCCC1 (stereo not drawn) [Ia, 7-[(2-(2-Aminothiazol-4-yl)-2[(Z)-[carboxy(3,4-dihydroxyphenyl)methyl]oxyimino]acetamido]-3-(1-methylpyrrolidinio)methyl-3-cephem-4-carboxylate] | 1.4 (≈ 2.21 µM) | 3.1 (≈ 4.9 µM) | 0.3 (≈ 0.474 µM) | 0.4 (≈ 0.632 µM) | 0.8 (≈ 1.26 µM) | 1.6 (≈ 2.53 µM) | 5.6 | 1.6 (≈ 2.53 µM) | 0.14 | 0.2 (≈ 0.316 µM) | 6.3 | 1.6 (≈ 2.53 µM) |
| C/C=C\C1=C(C(=O)O)N2C(=O)C(NC(=O)/C(=N\OC(C(=O)O)c3ccc(O)c(O)c3)c3csc(N)n3)C2SC1 (stereo not drawn) [Ib] | 0.92 (≈ 1.6 µM) | 2.1 (≈ 3.65 µM) | 0.17 (≈ 0.295 µM) | 0.35 (≈ 0.608 µM) | 7.3 (≈ 12.7 µM) | 5.1 (≈ 8.86 µM) | 6.8 | 0.8 (≈ 1.39 µM) | 1.5 | 0.4 (≈ 0.695 µM) | 17 | 3.1 (≈ 5.39 µM) |
